The assay has as its target T1, Recombinant human GR (Homo sapiens, UniProt P04150).
T1 construct: purchased Invitrogen P2816
T1 sequence (P04150 1-777): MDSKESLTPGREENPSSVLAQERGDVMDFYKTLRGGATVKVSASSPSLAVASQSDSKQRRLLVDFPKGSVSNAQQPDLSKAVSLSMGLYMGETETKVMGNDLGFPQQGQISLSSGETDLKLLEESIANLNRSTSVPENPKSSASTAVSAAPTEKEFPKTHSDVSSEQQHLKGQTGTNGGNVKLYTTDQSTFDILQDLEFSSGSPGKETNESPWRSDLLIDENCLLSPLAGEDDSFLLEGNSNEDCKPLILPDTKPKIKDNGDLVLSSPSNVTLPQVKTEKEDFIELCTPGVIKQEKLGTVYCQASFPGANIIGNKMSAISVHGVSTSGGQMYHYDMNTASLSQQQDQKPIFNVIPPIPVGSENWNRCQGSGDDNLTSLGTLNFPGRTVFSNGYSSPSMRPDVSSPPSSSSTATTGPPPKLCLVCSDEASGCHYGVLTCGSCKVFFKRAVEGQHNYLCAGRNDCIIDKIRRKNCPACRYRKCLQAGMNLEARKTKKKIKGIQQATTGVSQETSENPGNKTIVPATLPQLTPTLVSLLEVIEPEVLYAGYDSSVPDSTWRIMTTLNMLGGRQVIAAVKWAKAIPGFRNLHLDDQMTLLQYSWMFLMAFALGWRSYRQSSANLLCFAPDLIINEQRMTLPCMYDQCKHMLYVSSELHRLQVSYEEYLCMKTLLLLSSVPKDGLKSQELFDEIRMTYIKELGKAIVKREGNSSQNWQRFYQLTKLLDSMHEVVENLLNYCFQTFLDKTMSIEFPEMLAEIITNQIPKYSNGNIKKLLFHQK
Kind of assay: GR competitor assay by fluorescence polarization (binding activity to glucocorticoid receptor). The note with it: 20 μM test compound solution, 10 μL per well plus 5 μL 4×GS1 and 5 μL 4×GR; 2 to 4 hours at room temperature; ratio of 100% or more is indicated by 100%. The protocol: 1. Evaluation Test for Binding Activity to Glucocorticoid Receptor (hereinafter referred to as “GR”)
In order to evaluate a binding activity to GR, a receptor competitor assay was carried out by a fluorescence polarization method. In the assay, a GR competitor assay kit (manufactured by Invitrogen, cat No. P2816) was used, and a procedure was carried out according to the protocol attached to the kit. Hereinafter, the specific method will be described.
(Preparation of Reagents)
GR screening buffer: A buffer containing 10 mM potassium phosphate (pH 7.4), 20 mM sodium molybdate (Na2MoO4), 0.1 mM ethylene diamine tetraacetic acid (EDTA), 5 mM dithiothreitol (DTT), 0.1 mM stabilizing peptide and 2% dimethylsulfoxide was prepared.
4×GS1 solution: Fluormone™ GS1, which is a fluorescent glucocorticoid ligand, was diluted with GR screening buffer, whereby a 4 nM solution was prepared.
4×GR solution: Recombinant human GR was diluted with GR screening buffer, whereby a 16 nM solution was prepared.
(Preparation of Test Compound Solution)
After a test compound was dissolved in dimethylsulfoxide, it was diluted with GR screening buffer, whereby a 20 μM test compound solution was prepared.
(Test Method and Measurement Method)
1) The test compound solution was added in an amount of 10 μL into each well of a 384-well plate, and then, 4×GS1 solution and 4×GR solution were added in an amount of 5 μL into each well, respectively.
2) The plate was incubated in a dark place at room temperature for 2 to 4 hours.
3) By using a multimode plate reader, Analyst™ HT (manufactured by LJL Biosystems), fluorescence polarization of each well was measured. As the blank, a well containing GR screening buffer in place of the test compound and 4×GS1 solution was used.
4) The same procedure as that in the above 1) to 3) was carried out except that GR screening buffer was used in place of the test compound solution, and the obtained result was taken as the negative control.
5) The same procedure as that in the above 1) to 3) was carried out except that 2 mM dexamethasone was used in place of the test compound solution, and the obtained result was taken as the positive control.
(Calculation Equation of GR Binding Ratio)
A GR binding ratio (%) was calculated from the following equation. GR binding ratio(%)=100×[1−(fluorescence polarization of test compound solution−fluorescence polarization of positive control solution)/(fluorescence polarization of negative control solution−fluorescence polarization of positive control solution)] (Test Results and Discussion)
By inhibition is commonly meant the change of the read-out against control, counted positive when it falls. With `COc1cc(OS(=O)(=O)C(C)C)ccc1-c1ccc2c(c1COC(=O)c1ccc(C)s1)N(C)C(=O)C(C)(C)N2` [Compound 1-36], the inhibition at 10 µM turned out to be 99%. As to `COc1cc(OS(=O)(=O)C2CCCC2)ccc1-c1ccc2c(c1COc1cc(F)ccc1C)N(C)C(=O)C(C)(C)N2` [Compound 1-29], the inhibition at 10 µM came to 95%. For the molecule `CNCCN(C)CCCS(=O)(=O)Oc1ccc(-c2ccc3c(c2COc2cc(F)ccc2C)N(C)C(=O)C(C)(C)N3)c(OC)c1` [Compound 3-6, 8-(5-Fluoro-2-methylphenoxymethyl)-7-[2-methoxy-4-[3-[N-(2-methylaminoethyl)-N-methylamino]propylsulfonyloxy]phenyl]-1,3,3-trimethyl-3,4-dihydro-1H-quinoxalin-2-one], the inhibition at 10 µM was determined as 99%. `COc1ccccc1NCc1c(-c2ccc(OS(=O)(=O)CCC(F)(F)F)cc2OC)ccc2c1N(C)C(=O)C(C)(C)N2` [Compound 2-4, 8-(2-Methoxyphenylaminomethyl)-7-[2-methoxy-4-(3,3,3-trifluoropropylsulfonyloxy)phenyl]-1,3,3-trimethyl-3,4-dihydro-1H-quinoxalin-2-one]: the inhibition at 10 µM was found to be 91%. For `COc1ccccc1NCc1c(-c2ccc(OS(=O)(=O)C3CC3)cc2OC)ccc2c1N(C)C(=O)C(C)(C)N2` [Compound 2-3], the inhibition at 10 µM was 93%.

As for `COc1cc(OS(=O)(=O)c2ccccc2C)ccc1-c1ccc2c(c1COc1cc(F)ccc1C)N(C)C(=O)C(C)(C)N2` [Compound 1-11], the inhibition at 10 µM was found to be 83%. In the case of `COc1cc(OS(=O)(=O)Cc2ccccc2)ccc1-c1ccc2c(c1COc1cc(F)ccc1C)N(C)C(=O)C(C)(C)N2` [Compound 1-9], the inhibition at 10 µM came to 100%.

For `COc1ccccc1NCc1c(-c2ccc(OS(=O)(=O)C3CCCC3)cc2OC)ccc2c1N(C)C(=O)C(C)(C)N2` [Compound 2-7, 7-(4-Cyclopentylsulfonyloxy-2-methoxyphenyl)-8-(2-methoxyphenylaminomethyl)-1,3,3-trimethyl-3,4-dihydro-1H-quinoxalin-2-one], the inhibition at 10 µM is 99%. As to `COc1cc(OS(=O)(=O)CC(C)C)ccc1-c1ccc2c(c1COc1cc(F)ccc1C)N(C)C(=O)C(C)(C)N2` [Compound 1-21], the inhibition at 10 µM was determined as 92%. As to `COc1cc(OS(=O)(=O)CCCN(C)CCN(C)C)ccc1-c1ccc2c(c1COc1cc(F)ccc1C)N(C)C(=O)C(C)(C)N2` [Compound 3-5, 7-[4-[3-[N-(2-Dimethylaminoethyl)-N-methylamino]propylsulfonyloxy]-2-methoxyphenyl]-8-(5-fluoro-2-methylphenoxymethyl)-1,3,3-trimethyl-3,4-dihydro-1H-quinoxalin-2-one], the inhibition at 10 µM was determined as 100%. `COc1cc(OS(=O)(=O)c2ccccc2)ccc1-c1ccc2c(c1COc1cc(F)ccc1C)N(C)C(=O)C(C)(C)N2` [Compound 1-2]: the inhibition at 10 µM worked out at 85%. As for `COc1cc(OS(=O)(=O)C2CC2)ccc1-c1ccc2c(c1COC(=O)c1ccc(C)s1)N(C)C(=O)C(C)(C)N2` [Compound 1-32], the inhibition at 10 µM was determined as 96%. `COc1cc(OS(=O)(=O)CCC(F)(F)F)ccc1-c1ccc2c(c1COc1cc([N+](=O)[O-])ccc1C)N(C)C(=O)C(C)(C)N2` [Compound 1-46]: the inhibition at 10 µM came to 95%. In the case of `COc1cc(OS(=O)(=O)CCCNCc2ccccc2)ccc1-c1ccc2c(c1COc1cc(F)ccc1C)N(C)C(=O)C(C)(C)N2` [Compound 3-1, 7-[4-(3-Benzylaminopropylsulfonyloxy)-2-methoxyphenyl]-8-(5-fluoro-2-methylphenoxymethyl)-1,3,3-trimethyl-3,4-dihydro-1H-quinoxalin-2-one], the inhibition at 10 µM was found to be 94%. As to `CCCS(=O)(=O)Oc1ccc(-c2ccc3c(c2CNc2ccccc2OC)N(C)C(=O)C(C)(C)N3)c(OC)c1` [Compound 2-8, 8-(2-Methoxyphenylaminomethyl)-7-(2-methoxy-4-propylsulfonyloxyphenyl)-1,3,3-trimethyl-3,4-dihydro-1H-quinoxalin-2-one], the inhibition at 10 µM amounted to 98%. Consider `COc1cc(OS(C)(=O)=O)ccc1-c1ccc2c(c1COc1cc(F)ccc1C)N(C)C(=O)C(C)(C)N2` [Compound 1-1, 8-(5-Fluoro-2-methylphenoxymethyl)-7-(2-methoxy-4-methylsulfonyloxyphenyl)-1,3,3-trimethyl-3,4-dihydro-1H-quinoxalin-2-one], for which the inhibition at 10 µM was determined as 91%. As to `COc1cc(OS(=O)(=O)CCC(F)(F)F)ccc1-c1ccc2c(c1COc1cc(F)ccc1C)N(C)C(=O)C(C)(C)N2` [Compound 1-22], the inhibition at 10 µM turned out to be 91%. To `COc1cc(OS(=O)(=O)c2ccccc2F)ccc1-c1ccc2c(c1COc1cc(F)ccc1C)N(C)C(=O)C(C)(C)N2` [Compound 1-26] belongs 95%; to `CCCS(=O)(=O)Oc1ccc(-c2ccc3c(c2COC(=O)c2ccc(C)s2)N(C)C(=O)C(C)(C)N3)c(OC)c1` [Compound 1-35], 95%; to `COc1cc(OS(=O)(=O)c2ccc(Cl)cc2)ccc1-c1ccc2c(c1COc1cc(F)ccc1C)N(C)C(=O)C(C)(C)N2` [Compound 1-17], 65%. To `COc1cc(OS(=O)(=O)Cc2cccc(C)c2)ccc1-c1ccc2c(c1COc1cc(F)ccc1C)N(C)C(=O)C(C)(C)N2` [Compound 1-31] belongs 90%; to `COc1ccccc1NCc1c(-c2ccc(OS(=O)(=O)C(C)C)cc2OC)ccc2c1N(C)C(=O)C(C)(C)N2` [Compound 2-6, 7-(4-Isopropylsulfonyloxy-2-methoxyphenyl)-8-(2-methoxyphenylaminomethyl)-1,3,3-trimethyl-3,4-dihydro-1H-quinoxalin-2-one], 100%; to `COc1cc(OS(=O)(=O)Cc2cccc(Cl)c2)ccc1-c1ccc2c(c1COc1cc(F)ccc1C)N(C)C(=O)C(C)(C)N2` [Compound 1-18], 88%. In the case of `CCCNCCCS(=O)(=O)Oc1ccc(-c2ccc3c(c2COc2cc(F)ccc2C)N(C)C(=O)C(C)(C)N3)c(OC)c1` [Compound 3-2, 8-(5-Fluoro-2-methylphenoxymethyl)-7-[2-methoxy-4-(3-propylaminopropylsulfonyloxy)phenyl]-1,3,3-trimethyl-3,4-dihydro-1H-quinoxalin-2-one], the inhibition at 10 µM is 100%. For the molecule `COc1cc(OS(=O)(=O)CCCCl)ccc1-c1ccc2c(c1COc1cc(F)ccc1C)N(C)C(=O)C(C)(C)N2` [Compound 1-54, 7-[4-(3-chloropropylsulfonyloxy)-2-methoxyphenyl]-8-(5-fluoro-2-methylphenoxymethyl)-1,3,3-trimethyl-3,4-dihydro-1H-quinoxalin-2-one], the inhibition at 10 µM amounted to 99%.

In the case of `COc1ccc([N+](=O)[O-])cc1OCc1c(-c2ccc(OS(C)(=O)=O)cc2OC)ccc2c1N(C)C(=O)C(C)(C)N2` [Compound 1-38], the inhibition at 10 µM is 100%. With `COc1cc(OS(=O)(=O)C2CCCC2)ccc1-c1ccc2c(c1COC(=O)c1ccc(C)s1)N(C)C(=O)C(C)(C)N2` [Compound 1-37], the inhibition at 10 µM worked out at 94%. In the case of `COc1ccc([N+](=O)[O-])cc1OCc1c(-c2ccc(OS(=O)(=O)CC(C)C)cc2OC)ccc2c1N(C)C(=O)C(C)(C)N2` [Compound 1-40], the inhibition at 10 µM is 100%. Consider `COc1cc(OS(=O)(=O)C2CCCC2)ccc1-c1ccc2c(c1COc1cc([N+](=O)[O-])ccc1C)N(C)C(=O)C(C)(C)N2` [Compound 1-50], for which the inhibition at 10 µM stood at 98%.

The values above are taken from patent publication US8569493B2 (Santen Pharmaceutical Co., Ltd., priority 2007, dated 2013).
